Measured values taken from patent US11149037B2, “Pyrazole MAGL inhibitors” (H. Lundbeck A/S, priority 2017, dated 2021).

Experiments:
MAGL [1] = target: MAGL (Homo sapiens (Human), UniProt Q99685); experiment: In vitro competitive activity-based protein profiling, human proteomes (prefrontal cortex or PC3 cell membrane fractions); type: biochemical; conditions: human proteome; for inhibition at 1 µM: read-out: MAGL % inh. 1 μM (human); for inhibition at 10 µM: read-out: MAGL % inh. (human) @ 10 μM
Protocol: (§1) In Vitro Competitive Activity-Based Protein Profiling.
(§2) Proteomes (mouse brain membrane fraction or cell lysates for mouse assays; human prefrontal cortex or PC3 cell membrane fractions for human assays) (50 μL, 1.0 or 2.0 mg/mL total protein concentration) were preincubated with varying concentrations of inhibitors at 37° C. After 30 min, FP-Rh or JW912 or HT-01 (1.0 μL, 50 μM in DMSO) was added and the mixture was incubated for another 30 min at 37° C. Reactions were quenched with SDS loading buffer (15 μL-4×) and run on SDS-PAGE. Following gel imaging, serine hydrolase activity was determined by measuring fluorescent intensity of gel bands corresponding to MAGL and FAAH using ImageJ 1.43u software.

MAGL [2] = target: MAGL (Mus musculus (Mouse), UniProt O35678); experiment: In vitro competitive activity-based protein profiling, mouse proteomes (brain membrane fraction or cell lysates); type: biochemical; conditions: mouse proteome, read-out: MAGL % inh. 1 μM (mouse)
Protocol: as §1, §2

Chain of MAGL (Mus musculus (Mouse), UniProt O35678) (O35678 whole entry): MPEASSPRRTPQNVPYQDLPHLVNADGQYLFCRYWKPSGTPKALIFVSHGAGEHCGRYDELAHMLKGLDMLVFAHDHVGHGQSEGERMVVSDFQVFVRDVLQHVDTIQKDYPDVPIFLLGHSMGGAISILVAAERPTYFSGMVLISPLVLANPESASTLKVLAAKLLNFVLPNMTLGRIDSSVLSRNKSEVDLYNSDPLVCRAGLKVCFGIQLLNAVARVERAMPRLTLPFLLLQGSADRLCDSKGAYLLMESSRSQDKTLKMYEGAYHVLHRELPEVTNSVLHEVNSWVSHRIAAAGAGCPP
Chain of MAGL (Homo sapiens (Human), UniProt Q99685) (Q99685 whole entry): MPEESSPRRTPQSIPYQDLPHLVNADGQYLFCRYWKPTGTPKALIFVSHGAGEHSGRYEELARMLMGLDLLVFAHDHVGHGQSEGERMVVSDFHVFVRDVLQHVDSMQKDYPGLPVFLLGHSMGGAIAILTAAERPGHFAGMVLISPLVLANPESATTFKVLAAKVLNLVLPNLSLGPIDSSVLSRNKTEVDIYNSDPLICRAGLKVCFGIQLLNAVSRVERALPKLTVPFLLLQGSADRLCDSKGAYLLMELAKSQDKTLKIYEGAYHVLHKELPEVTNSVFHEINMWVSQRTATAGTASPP

| inhibition at 1 µM (MAGL [1]) | SMILES | also measured |
| --- | --- | --- |
| > 75% | C[C@@H]1CN(C(=O)n2ccc(NS(C)(=O)=O)n2)CCN1Cc1ccc(Cl)c(N2CCCC2)c1 [Example 224, (R)-N-(1-(4-(4-Chloro-3-(pyrrolidin-1-yl)benzyl)-3-methyl-piperazine-1-carbonyl)-1H-pyrazol-3-yl)methane-sulfonamide] | inhibition at 1 µM (MAGL [2]): > 75% |
| > 75% | Cc1c(CN2CCN(C(=O)n3ccc(NS(C)(=O)=O)n3)CC2)cccc1C(F)(F)F [Example 220, N-(1-(4-(2-Methyl-3-(trifluoromethyl)benzyl)piperazine-1-carbonyl)-1H-pyrazol-3-yl)methane-sulfonamide] |  |
| > 75% | CC(=O)Nc1ccn(C(=O)N2CCC(C)(N(C)Cc3ccc(Cl)c(C)c3)CC2)n1 [Example 217, N-(1-(4-((4-Chloro-3-methylbenzyl) (methyl)amino)-4-methyl-piperidine-1-carbonyl)-1H-pyrazol-3-yl)acetamide] |  |
| > 75% | CS(=O)(=O)Nc1ccn(C(=O)N2CCN(Cc3ccc(F)c(OC(F)(F)F)c3)CC2)n1 [Example 218, N-(1-(4-(4-Fluoro-3-(trifluoromethoxy)benzyl)piperazine-1-carbonyl)-1H-pyrazol-3-yl)methane-sulfonamide] |  |
| > 75% | CS(=O)(=O)Nc1ccn(C(=O)N2CCN(Cc3ccc(OC(F)F)c(OCC4CC4)c3)CC2)n1 [Example 221, N-(1-(4-(3-(Cyclopropyl-methoxy)-4-(difluoro-methoxy)benzyl)piperazine-1-carbonyl)-1H-pyrazol-3-yl)methane-sulfonamide] |  |
| > 75% | C[C@H]1CN(C(=O)n2ccc(NS(C)(=O)=O)n2)CCN1Cc1ccc(Cl)c(C2CCCC2)c1 [Example 216, (S)-N-(1-(4-(4-Chloro-3-cyclopentyl-benzyl)-3-methyl-piperazine-1-carbonyl)-1H-pyrazol-3-yl)methane-sulfonamide] |  |
| > 75% | CS(=O)(=O)Nc1ccn(C(=O)N2CCN(Cc3cccc(C(F)(F)F)c3Cl)CC2)n1 [Example 219, N-(1-(4-(2-Chloro-3-(trifluoromethyl)benzyl)piperazine-1-carbonyl)-1H-pyrazol-3-yl)methane-sulfonamide] |  |
| > 75% | CS(=O)(=O)Nc1ccn(C(=O)N2CCN(Cc3ccc(F)c(Oc4ccccc4)c3)CC2)n1 [Example 222, N-(1-(4-(4-Fluoro-3-phenoxy-benzyl)piperazine-1-carbonyl)-1H-pyrazol-3-yl)methane-sulfonamide] |  |

Continued, compound first:

| SMILES | inhibition at 1 µM (MAGL [1]) | also measured |
| --- | --- | --- |
| C[C@@H]1CN(C(=O)n2ccc(NS(C)(=O)=O)n2)CCN1Cc1ccc(Cl)c(N2CCC(F)(F)CC2)c1 [Example 201, (R)-N-(1-(4-(4-Chloro-3-(4,4-difluoropiperidin-1-yl)benzyl)-3-methylpiperazine-1-carbonyl)-1H-pyrazol-3-yl)methanesulfonamide] | > 75% | inhibition at 1 µM (MAGL [2]): > 75% |
| C[C@@H]1CN(Cc2ccc(C(F)(F)F)c(N3CC4COCC4C3)c2)CCN1C(=O)n1ccc(NS(C)(=O)=O)n1 (stereo partly drawn) [Example 180, N-(1-((2R)-2-Methyl-4-(3-(tetrahydro-1H-furo[3,4-c]pyrrol-5(3H)-yl)-4-(trifluoromethyl)benzyl)piperazine-1-carbonyl)-1H-pyrazol-3-yl)methanesulfonamide] | > 75% | IC50 (MAGL [1]): < 0.1 µM; inhibition at 1 µM (MAGL [2]): > 75% |
| CC(C)C1CCN(c2cc(CN3CCN(C(=O)n4ccc(NS(C)(=O)=O)n4)CC3)ccc2Cl)CC1 [Example 213, N-(1-(4-(4-Chloro-3-(4-isopropyl-piperidin-1-yl)benzyl)piperazine-1-carbonyl)-1H-pyrazol-3-yl)methane-sulfonamide] | > 75% |  |
| CS(=O)(=O)Nc1ccn(C(=O)N2CCC3(CCCN3Cc3ccc(Cl)cc3N3CCC(F)CC3)CC2)n1 [Example 204, N-(1-(1-(4-Chloro-2-(4-fluoropiperidin-1-yl)benzyl)-1,8-diazaspiro[4.5]decane-8-carbonyl)-1H-pyrazol-3-yl)methanesulfonamide] | > 75% |  |
| CS(=O)(=O)Nc1ccn(C(=O)N2CCN(Cc3ccc(Cl)c(N4CCC(C#N)CC4)c3)CC2)n1 [Example 211, N-(1-(4-(4-Chloro-3-(4-cyano-piperidin-1-yl)benzyl)piperazine-1-carbonyl)-1H-pyrazol-3-yl)methane-sulfonamide] | > 75% |  |
| CS(=O)(=O)Nc1ccn(C(=O)N2CCC3(CCN(Cc4ccccc4)C3)CC2)n1 [Example 165, N-(1-(2-Benzyl-2,8-diazaspiro[4.5]decane-8-carbonyl)-1H-pyrazol-3-yl)methanesulfonamide] |  | inhibition at 10 µM (MAGL [1]): > 75% |
| C[C@@H]1CN(C(=O)n2ccc(NS(C)(=O)=O)n2)CCN1Cc1ccc(Cl)c(C2CCCC2)c1 [Example 215, (R)-N-(1-(4-(4-Chloro-3-cyclopentyl-benzyl)-3-methyl-piperazine-1-carbonyl)-1H-pyrazol-3-yl)methane-sulfonamide] | > 75% |  |
| CN(Cc1ccc(Cl)c(N2CCC(F)CC2)c1)C1CCN(C(=O)n2ccc(NS(C)(=O)=O)n2)CC1 [Example 206, N-(1-(4-((4-Chloro-3-(4-fluoropiperidin-1-yl)benzyl)(methyl)amino)piperidine-1-carbonyl)-1H-pyrazol-3-yl)methanesulfonamide] | > 75% |  |
| CS(=O)(=O)Nc1ccn(C(=O)N2CCC3(CCCN3Cc3ccc(Cl)cc3N3CC4COCC4C3)CC2)n1 (stereo not shown) [Example 205, N-(1-(1-(4-Chloro-2-(tetrahydro-1H-furo[3,4-c]pyrrol-5(3H)-yl)benzyl)-1,8-diazaspiro[4.5]decane-8-carbonyl)-1H-pyrazol-3-yl)methanesulfonamide] | > 75% |  |
| CS(=O)(=O)Nc1ccn(C(=O)N2CCN(Cc3ccc(Cl)c(F)c3)CC2)n1 [Example 212, N-(1-(4-(4-Chloro-3-fluorobenzyl)piperazine-1-carbonyl)-1H-pyrazol-3-yl)methane-sulfonamide] | > 75% |  |
| CC(=O)Nc1ccn(C(=O)N2CCN(Cc3ccc(-c4ccccc4)cc3C)C[C@H]2C)n1 [Example 208, (R)-N-(1-(2-Methyl-4-((3-methyl-[1,1′-biphenyl]-4-yl)methyl)piperazine-1-carbonyl)-1H-pyrazol-3-yl)acetamide] | > 75% | IC50 (MAGL [1]): < 0.1 µM |
| CC(=O)Nc1ccn(C(=O)N2CCN(Cc3ccc(-c4ccccc4)cc3C)C[C@@H]2C)n1 [Example 207, (S)-N-(1-(2-Methyl-4-((3-methyl-[1,1′-biphenyl]-4-yl)methyl)piperazine-1-carbonyl)-1H-pyrazol-3-yl)acetamide] | > 75% |  |
| CS(=O)(=O)Nc1ccn(C(=O)N2CCN(Cc3ccc(Cl)c(C(F)(F)F)c3)CC2)n1 [Example 214, N-(1-(4-(4-Chloro-3-(trifluoromethyl)benzyl)piperazine-1-carbonyl)-1H-pyrazol-3-yl)methane-sulfonamide] | > 75% |  |
| CS(=O)(=O)Nc1ccn(C(=O)N2CCN(Cc3ccc(Cl)c(N4CC5CNCC5C4)c3)CC2)n1 (stereo not shown) [Example 152, N-(1-(4-(4-Chloro-3-(hexahydropyrrolo[3,4-c]pyrrol-2(1H)-yl)benzyl)piperazine-1-carbonyl)-1H-pyrazol-3-yl)methanesulfonamide] |  | inhibition at 10 µM (MAGL [1]): > 75% |
| C[C@@H]1CN(C(=O)n2ccc(NS(C)(=O)=O)n2)CCN1Cc1ccc(Cl)c(N2CC[C@H](F)C2)c1 [Example 203, N-(1-((R)-4-(4-Chloro-3-((S)-3-fluoropyrrolidin-1-yl)benzyl)-3-methylpiperazine-1-carbonyl)-1H-pyrazol-3-yl)methanesulfonamide] | > 75% |  |
